What is called IC50 is the concentration needed to halve the response being measured. A high value points to lower potency.

The assay addresses mitochondrial complex I (Mus musculus, UniProt P03888+Q91WD5+Q9DC70). Description: polarography: oxygen consumption in cells with complex I-specific substrates. The format is cell-based.

Chain of mitochondrial complex I (Q91VD9 24-727): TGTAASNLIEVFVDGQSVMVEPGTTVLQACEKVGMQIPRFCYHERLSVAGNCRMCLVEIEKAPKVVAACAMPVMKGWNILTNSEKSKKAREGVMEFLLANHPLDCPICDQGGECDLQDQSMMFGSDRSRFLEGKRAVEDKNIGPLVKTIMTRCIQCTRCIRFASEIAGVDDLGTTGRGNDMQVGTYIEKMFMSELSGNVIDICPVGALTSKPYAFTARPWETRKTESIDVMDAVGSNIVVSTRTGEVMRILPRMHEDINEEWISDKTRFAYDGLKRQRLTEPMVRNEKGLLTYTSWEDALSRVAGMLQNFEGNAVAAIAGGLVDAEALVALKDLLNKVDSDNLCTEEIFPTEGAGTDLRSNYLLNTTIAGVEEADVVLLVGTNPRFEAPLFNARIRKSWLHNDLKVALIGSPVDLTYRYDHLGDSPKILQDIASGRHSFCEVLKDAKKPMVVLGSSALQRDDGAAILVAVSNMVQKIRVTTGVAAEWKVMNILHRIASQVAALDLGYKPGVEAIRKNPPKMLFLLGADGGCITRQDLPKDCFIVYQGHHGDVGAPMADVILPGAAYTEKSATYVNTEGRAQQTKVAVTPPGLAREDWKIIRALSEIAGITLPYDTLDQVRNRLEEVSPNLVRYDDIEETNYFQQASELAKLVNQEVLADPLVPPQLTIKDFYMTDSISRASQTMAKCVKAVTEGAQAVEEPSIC
Chain of mitochondrial complex I (Q91WD5 34-463): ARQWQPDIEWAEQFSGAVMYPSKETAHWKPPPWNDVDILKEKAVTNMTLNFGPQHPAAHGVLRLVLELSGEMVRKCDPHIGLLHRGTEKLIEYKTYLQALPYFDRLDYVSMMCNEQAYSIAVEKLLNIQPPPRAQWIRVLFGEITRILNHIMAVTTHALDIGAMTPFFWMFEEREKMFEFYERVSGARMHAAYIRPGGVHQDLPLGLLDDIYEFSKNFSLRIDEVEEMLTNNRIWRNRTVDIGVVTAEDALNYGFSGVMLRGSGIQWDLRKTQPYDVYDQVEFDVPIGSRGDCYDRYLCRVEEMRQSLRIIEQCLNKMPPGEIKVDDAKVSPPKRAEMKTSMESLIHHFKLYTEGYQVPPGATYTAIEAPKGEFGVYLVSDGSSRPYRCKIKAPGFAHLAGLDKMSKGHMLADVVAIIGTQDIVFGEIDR
Chain of mitochondrial complex I (P03888 whole entry): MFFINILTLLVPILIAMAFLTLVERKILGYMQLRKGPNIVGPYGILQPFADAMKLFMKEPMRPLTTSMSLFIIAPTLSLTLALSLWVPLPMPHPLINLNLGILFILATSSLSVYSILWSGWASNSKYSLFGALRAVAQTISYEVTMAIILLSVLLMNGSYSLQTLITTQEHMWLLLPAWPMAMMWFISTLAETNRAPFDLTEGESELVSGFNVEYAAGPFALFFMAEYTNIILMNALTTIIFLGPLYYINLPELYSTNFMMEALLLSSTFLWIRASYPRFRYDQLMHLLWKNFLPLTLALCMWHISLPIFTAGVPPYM
Chain of mitochondrial complex I (Q9DC70 36-224): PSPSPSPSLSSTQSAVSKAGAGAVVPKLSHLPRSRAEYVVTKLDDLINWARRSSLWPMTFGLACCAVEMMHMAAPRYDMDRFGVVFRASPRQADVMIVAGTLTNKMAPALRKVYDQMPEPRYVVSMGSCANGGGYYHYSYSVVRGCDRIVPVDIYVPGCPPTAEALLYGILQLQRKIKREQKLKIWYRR
Chain of mitochondrial complex I (Q91YT0 21-464, further chain): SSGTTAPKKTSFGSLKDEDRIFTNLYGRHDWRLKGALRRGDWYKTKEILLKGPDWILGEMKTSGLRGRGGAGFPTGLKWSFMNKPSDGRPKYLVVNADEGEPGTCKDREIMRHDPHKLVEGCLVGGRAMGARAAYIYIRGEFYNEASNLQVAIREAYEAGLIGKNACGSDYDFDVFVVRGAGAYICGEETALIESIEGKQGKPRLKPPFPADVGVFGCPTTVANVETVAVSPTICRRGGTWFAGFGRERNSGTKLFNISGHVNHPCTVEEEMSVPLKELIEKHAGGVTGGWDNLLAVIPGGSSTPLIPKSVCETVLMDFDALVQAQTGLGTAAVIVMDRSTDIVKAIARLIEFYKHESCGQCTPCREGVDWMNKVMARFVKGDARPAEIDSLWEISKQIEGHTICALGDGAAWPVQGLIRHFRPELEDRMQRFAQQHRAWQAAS

In the case of `C/C=C(\C)[C@H](O)[C@H](C)/C=C(C)/C=C/C/C(C)=C/Cc1nc(OC)c(OC)c(O)c1C` [piericidin A], the half-maximal inhibitory concentration (IC50) came to 10 nM. As to `C=C(C)[C@H]1Cc2c(ccc3c2O[C@@H]2COc4cc(OC)c(OC)cc4[C@@H]2C3=O)O1` [rotenone], the half-inhibitory concentration (IC50) is 20 nM.

The record behind these values is publication PMC3051820 (The Journal of Cell Biology, 2011).
